Laboratory results: patent publication US20260234630A1, “Methods for Treating Multiple Myeloma” (Celgene Corporation, priority 2022, published 2026)

Key:
UHRF1 = test: Western blot of UHRF1 protein in MM cells; assay type: cell-based
Experimental: FIG. 1A-1F. Down regulation of UHRF1 transcription by IMiDs correlates with drug sensitivity of multiple myeloma. (1A) Volcano plot of protein expression changes determined by mass spectrometry in H929 cells at 24 hr of treatment with CC-220 (0.1 μM) or DMSO control. X axis, Log2fold change (FC); Y axis, significance,-log 10 [p-value]. […] (1B) Volcano plot of gene expression changes determined by Affymetrix microarray in H929 cells treated with POM (1 μM) or DMSO for 24 hr. X axis, Log2fold change (FC); Y axis, significance,-log 10 [p-value], n=2 technical replicates). […] (1C) Western blot analysis protein expression of UHRF1, Ikaros, Aiolos and ZFP91 in H929 cells treated with 1 μM POM for indicated time. (1D) qRT-PCR analysis of UHRF1 gene expression levels in cells as in (1C). Error bars represent the SEM from duplicate measurements. (1E) Western blot analysis protein expression of UHRF1 and indicated proteins in MM cells treated with DMSO (−) or 1 μM POM (+) for 3 days. GAPDH serves as a loading control. (1F) Thymidine incorporation of various MM cell lines treated with indicated dose of POM for 3 days. Error bars represent the SEM from technical replicates.
FIG. 2A-2E. UHRF1 expression is positively regulated by Ikaros and Aiolos in IMiDs sensitive MM cells. (2A) Western blot analysis protein expression of UHRF1, Ikaros, Aiolos, ZFP91 and Cereblon expression in control [shLuciferase (shLuc)] and cereblon knockdown (shCRBN) H929 cells treated with DMSO and 1 μM POM for 3 days. GAPDH, loading control. Arrow head, UHRF1. (2B) qRT-PCR analysis of UHRF1 gene expression levels in cells as in (2A). Data was normalized to ACTB. Error bars represent the SEM of technical duplicates. *** P<0.001 (Two-tailed unpaired Student's t-test). (2C) Western blot analysis protein expression of UHRF1, Ikaros and Aiolos in stably transduced H929 cells after Dox induction (0, 10, 50 or 100 ng/ml) for 3 days of non-target shRNA (shNT) or shRNAs targeting Ikaros (shIKZF1) or Aiolos (shIKZF3). (2D) qRT-PCR analysis of UHRF1 gene expression levels in cells as in (2C). Shown are cells induced with Dox (50 ng/ml) for 3 days. Data was normalized to GAPDH. Error bars represent the SEM of technical duplicates. *P<0.05, ** P<0.01, *** P<0.001, **** P<0.0001 (Two-tailed unpaired Student's t-test). (2E) ChIP-qPCR analysis of the occupancy Aiolos (upper panel) or H3K27ac (lower panel) occupancy at transcription star site (TSS), gene body (+7 kb) and gene end (GE) of UHRF1 gene in H929, MM1.S or RPMI 8226 cells treated with DMSO or 1 μM POM for 24 hr. ChIP with control rabbit IgG (IgG) serves as a negative control. Error bars represent the SEM of technical triplicates. * P<0.05, ** P<0.01, **** P<0.0001 (Two-tailed unpaired Student's t-test).
FIG. 6A-6D. […]

H3 and H3K27ac = test: Western blot of global histone H3 and H3K27ac levels; assay type: cell-based; conditions: H929 and MM1.S cells, 1 μM POM, 24 hr
Experimental: FIG. 7A-7B. UHRF1 expression is positively regulated by Ikaros, Aiolos and ZFP91 in MM1.S cells. (7A) Western blot analysis protein expression of UHRF1, Ikaro and Aiolos in stably transduced MM1.S cells after Dox induction (0, 20, or 50 ng/ml) for 3 days of non-target shRNA (shNT) or shRNAs targeting Ikaros (shIKZF1) or Aiolos (shIKZF3). (7B) Western blot analysis histone H3 and H3K27ac levels from H929 and MM1.S cells treated with DMSO or 1 μM POM for 24 hr.
Cells were lysed with cell lysis buffer (50 mM TrisHCl pH7.4, 250 mM NaCl, 0.5% Triton X100, 10% glycerol) supplemented with protease inhibitor cocktail. Cell lysates were subjected to sonication to breakdown nuclei and reduce viscosity caused by released genomic DNA. The protein concentration was measured by a Bradford Protein Assay (Bio-Rad). Samples were mixed with SDS sample buffer at 95° C. for 5 minutes. Whole cell lysates were resolved on NuPAGE™ 4-12% Bis-Tris Midi Protein Gels (Invitrogen) and transferred onto nitrocellulose membranes, which were then subjected to blocking in Intercept (TBS) Blocking Buffer (LI-COR). Proteins of interested were detected incubation with primary antibodies listed below at 4° C. overnight. Then the membrane was incubated with either IRDye 680RD goat anti-Mouse IgG (H+L) or IRDye 800CW goat anti-Rabbit IgG (H+L) (1:10,000; LI-COR). Bends were visualized by Odyssey Imaging System (LI-COR).

Nc1cccc2c1C(=O)N(C1CCC(=O)NC1=O)C2=O (centres unmarked) [POM, pomalidomide]
time to profound reduction of UHRF1 protein level (UHRF1; H929 cells, POM 1 μM, time course): ≤ 48 h | UHRF1 protein levels (UHRF1; MC/CAR and RPMI 8226 cells, 1 μM POM, 3 days): without affecting | UHRF1 expression level (UHRF1; sensitive cell lines H929, MM1.S, DF15 and U266, 1 μM POM, 72 hours): downregulated | downregulation of UHRF1 protein by POM under cereblon knockdown (UHRF1; shCRBN vs shLuc H929 cells, 1 μM POM, 3 days): rescued | global levels of H3 and H3K27ac (H3 and H3K27ac): not affected
